Like-named read-outs stand apart in the source and are kept apart here.
Key:
[1] = molecular target: T1, human CYP2C19 (Homo sapiens, UniProt P33261)
[2] = molecular target: human CYP2D6 (Homo sapiens, UniProt P10635)
[3] = molecular target: T2, human CYP2C9 (Homo sapiens, UniProt P11712)
[4] = molecular target: CYP3A4 (Homo sapiens, UniProt P08684)
[5] = molecular target: T3, human CYP1A2 (Homo sapiens, UniProt P05177)
T3 sequence (P05177 1-516): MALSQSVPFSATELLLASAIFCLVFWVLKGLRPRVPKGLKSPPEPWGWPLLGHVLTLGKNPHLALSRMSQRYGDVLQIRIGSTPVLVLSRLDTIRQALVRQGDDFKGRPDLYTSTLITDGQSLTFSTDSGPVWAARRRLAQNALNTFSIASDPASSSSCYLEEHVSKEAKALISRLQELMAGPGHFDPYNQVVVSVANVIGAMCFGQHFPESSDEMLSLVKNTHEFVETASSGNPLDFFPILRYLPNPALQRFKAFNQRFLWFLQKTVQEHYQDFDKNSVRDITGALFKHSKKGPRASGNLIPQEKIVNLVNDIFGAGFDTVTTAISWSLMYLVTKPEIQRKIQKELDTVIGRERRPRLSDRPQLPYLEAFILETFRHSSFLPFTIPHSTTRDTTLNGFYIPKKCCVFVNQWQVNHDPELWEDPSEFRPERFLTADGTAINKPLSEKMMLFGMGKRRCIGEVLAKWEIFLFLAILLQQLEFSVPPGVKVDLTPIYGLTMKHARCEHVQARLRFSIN

[6] = molecular target: Photinus pyralis (firefly) luciferase (Photinus pyralis, UniProt P08659); assay: biochemical; format: biochemical
[7] = molecular target: T2, human CYP2C9; assay: biochemical
[8] = molecular target: T1, human CYP2C19; assay: biochemical
[9] = molecular target: T3, human CYP1A2; assay: biochemical; conditions: CYP1A2 IC50
[10] = CYP2C9 IC50 (half-maximal inhibitory concentration)

T1 sequence (P33261 whole entry): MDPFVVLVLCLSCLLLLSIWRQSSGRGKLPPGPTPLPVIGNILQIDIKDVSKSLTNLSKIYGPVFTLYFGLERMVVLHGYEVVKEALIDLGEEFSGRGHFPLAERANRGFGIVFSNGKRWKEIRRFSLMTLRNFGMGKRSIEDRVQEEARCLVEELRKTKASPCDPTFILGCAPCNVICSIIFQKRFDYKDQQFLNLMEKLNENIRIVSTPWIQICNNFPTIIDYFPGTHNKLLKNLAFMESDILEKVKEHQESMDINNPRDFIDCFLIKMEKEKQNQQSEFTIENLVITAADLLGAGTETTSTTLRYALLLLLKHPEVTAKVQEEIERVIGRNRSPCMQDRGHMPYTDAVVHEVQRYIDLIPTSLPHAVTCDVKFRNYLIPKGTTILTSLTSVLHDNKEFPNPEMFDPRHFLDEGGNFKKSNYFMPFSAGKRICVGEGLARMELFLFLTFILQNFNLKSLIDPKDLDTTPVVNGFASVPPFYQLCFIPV
Chain of human CYP2D6 (P10635 whole entry): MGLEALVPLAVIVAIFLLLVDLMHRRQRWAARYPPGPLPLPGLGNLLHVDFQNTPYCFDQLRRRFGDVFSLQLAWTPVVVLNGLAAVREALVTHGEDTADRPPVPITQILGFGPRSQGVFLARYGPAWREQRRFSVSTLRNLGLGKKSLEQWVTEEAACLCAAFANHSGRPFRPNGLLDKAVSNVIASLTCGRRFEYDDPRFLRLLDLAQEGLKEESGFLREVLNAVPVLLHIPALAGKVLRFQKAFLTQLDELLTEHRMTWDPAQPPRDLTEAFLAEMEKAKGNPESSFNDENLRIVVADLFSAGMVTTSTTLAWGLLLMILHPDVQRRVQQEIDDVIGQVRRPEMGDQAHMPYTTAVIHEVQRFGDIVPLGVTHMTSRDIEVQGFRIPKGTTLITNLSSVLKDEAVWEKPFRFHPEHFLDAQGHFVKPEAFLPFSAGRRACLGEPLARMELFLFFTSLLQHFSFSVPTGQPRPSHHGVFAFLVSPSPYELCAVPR
T2 sequence (P11712 whole entry): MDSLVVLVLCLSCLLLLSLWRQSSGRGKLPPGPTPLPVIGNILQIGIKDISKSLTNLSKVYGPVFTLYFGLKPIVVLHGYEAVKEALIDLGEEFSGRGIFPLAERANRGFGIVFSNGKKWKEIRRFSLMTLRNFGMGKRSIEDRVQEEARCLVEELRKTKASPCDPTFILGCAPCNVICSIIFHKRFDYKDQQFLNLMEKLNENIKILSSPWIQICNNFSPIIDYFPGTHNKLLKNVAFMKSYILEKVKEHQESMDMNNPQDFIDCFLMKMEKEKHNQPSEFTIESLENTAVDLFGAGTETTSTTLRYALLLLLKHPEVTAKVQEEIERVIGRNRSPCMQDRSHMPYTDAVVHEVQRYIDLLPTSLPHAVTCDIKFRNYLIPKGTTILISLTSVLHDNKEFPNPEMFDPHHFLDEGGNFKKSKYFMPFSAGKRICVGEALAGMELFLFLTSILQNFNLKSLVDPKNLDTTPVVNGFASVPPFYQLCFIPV
Chain of Photinus pyralis (firefly) luciferase (P08659 whole entry): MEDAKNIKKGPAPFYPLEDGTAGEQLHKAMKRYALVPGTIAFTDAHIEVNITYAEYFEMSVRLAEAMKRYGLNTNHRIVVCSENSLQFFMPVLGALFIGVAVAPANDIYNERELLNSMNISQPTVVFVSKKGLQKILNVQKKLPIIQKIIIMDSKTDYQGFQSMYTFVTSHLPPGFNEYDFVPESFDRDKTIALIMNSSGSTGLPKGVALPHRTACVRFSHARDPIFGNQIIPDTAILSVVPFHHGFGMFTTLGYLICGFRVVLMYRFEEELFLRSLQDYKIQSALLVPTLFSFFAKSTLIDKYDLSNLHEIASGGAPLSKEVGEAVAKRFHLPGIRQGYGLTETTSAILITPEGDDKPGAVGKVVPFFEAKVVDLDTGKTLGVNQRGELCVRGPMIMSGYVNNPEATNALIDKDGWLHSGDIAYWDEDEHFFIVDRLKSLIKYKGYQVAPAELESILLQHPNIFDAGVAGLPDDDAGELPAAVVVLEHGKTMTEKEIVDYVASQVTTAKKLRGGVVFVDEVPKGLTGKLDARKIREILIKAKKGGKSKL
Chain of CYP3A4 (P08684 whole entry): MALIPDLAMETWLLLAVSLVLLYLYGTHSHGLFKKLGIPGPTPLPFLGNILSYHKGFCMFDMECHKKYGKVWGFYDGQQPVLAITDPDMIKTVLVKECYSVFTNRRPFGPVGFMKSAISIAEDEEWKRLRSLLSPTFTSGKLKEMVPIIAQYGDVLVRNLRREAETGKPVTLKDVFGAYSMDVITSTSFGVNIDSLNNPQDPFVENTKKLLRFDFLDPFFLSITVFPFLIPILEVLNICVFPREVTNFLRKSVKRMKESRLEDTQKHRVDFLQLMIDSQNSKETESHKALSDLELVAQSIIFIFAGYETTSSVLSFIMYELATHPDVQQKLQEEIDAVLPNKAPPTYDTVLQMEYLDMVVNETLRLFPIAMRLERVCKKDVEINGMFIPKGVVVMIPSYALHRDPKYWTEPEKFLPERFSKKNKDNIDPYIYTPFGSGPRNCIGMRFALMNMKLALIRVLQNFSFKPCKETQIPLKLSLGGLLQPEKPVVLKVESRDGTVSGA

Compound: CCOP(=O)([O-])OCC.CCn1cc[n+](C)c1
- CYP2C19 Efficacy (in parenthesis) [1]: 68.44 ± 11.66 (-161 ± 32) %
- IC50 [1]: 68.4 µM
- CYP2D6 Efficacy (in parenthesis) [2]: 0.61 ± 0.29 (-97 ± 6) %
- IC50 [2]: 0.61 µM
- CYP2C9 Efficacy (in parenthesis) [3]: 58.2 ± 3.94 (-117 ± 2) %
- IC50 [3]: 58.2 µM
- CYP3A4 Efficacy (in parenthesis) [4]: 45.03 ± 9.43 (-76 ± 7) %
- IC50 [4]: 45 µM
- CYP1A2 Efficacy (in parenthesis) [5]: 78.99 ± 0 (-105 ± 5) %
- IC50 [5]: 79 µM
- Luciferase Efficacy (in parenthesis) [6]: 86.36 ± 7.02 (-39 ± 30) %
- IC50 ([6]; read-out: Luciferase IC50 (half-maximal inhibitory concentration)): 86.4 µM

Compound: Cl.ClCCCN1CCN(c2cccc(Cl)c2)CC1
- AC50 [1]: 8.86 µM
- CYP2C19 Efficacy [1]: 8.86 ± 2.03 (-125 ± 5) %
- AC50 [2]: 0.79 µM
- CYP2D6 Efficacy [2]: 0.79 ± 0.18 (-96 ± 4) %
- AC50 [3]: 16.8 µM
- CYP2C9 Efficacy [3]: 16.75 ± 1.09 (-48 ± 5) %
- AC50 [4]: 15.5 µM
- CYP3A4 IC50 [4]: 15.49 ± 0 (111 ± 12) µM
- AC50 [5]: 16.1 µM
- CYP1A2 Efficacy [5]: 16.12 ± 1.09 (-77 ± 4) %
- Luciferase IC50 [6]: Inactive

Compound: CC[C@]12CCCN3CCc4c(n(c5ccccc45)C(=O)C1)[C@@H]32 [(-)-Eburnamonine]
- IC50 [1]: 6.17 µM
- IC50 [3]: 20.1 µM
- IC50 [4]: 4.38 µM
- IC50 [5]: 24.1 µM
- Luciferase IC50 (half-maximal inhibitory concentration) [6]: Inactive

Compound: CN(C)CCN(Cc1ccc(Cl)cc1)c1ccccn1.Cl [Chloropyramine hydrochloride]
- CYP2C19 Efficacy [1]: 7.51 ± 1.03 (-122 ± 9) %
- CYP2D6 Efficacy [2]: 0.23 ± 0.05 (-101 ± 4) %
- CYP3A4 IC50 [4]: Inactive
- CYP1A2 Efficacy [5]: 20.13 ± 6.48 (-40 ± 3) %
- Luciferase IC50 [6]: Inactive

Compound: CCN(CC)C(=O)/C(C#N)=C/c1cc(O)c(O)c([N+](=O)[O-])c1 [Entacapone]
- CYP2C19 IC50 (half-maximal inhibitory concentration) [1]: Inactive
- CYP2D6 IC50 (half-maximal inhibitory concentration) [2]: Inactive
- IC50 [7, 10]: 0.2 µM
- CYP3A4 IC50 (half-maximal inhibitory concentration) [4]: Inactive
- CYP1A2 IC50 (half-maximal inhibitory concentration) [5]: Inactive
- Luciferase IC50 (half-maximal inhibitory concentration) [6]: Inactive

Compound: C=CCOC(Cn1ccnc1)c1ccc(Cl)cc1Cl.O=S(=O)(O)O (centres unmarked) [Imazalil sulfate]
- CYP2C19 Efficacy (in parenthesis) [1]: 0.22 ± 0.08 (-143 ± 13) %
- IC50 [1]: 0.22 µM
- CYP2D6 Efficacy (in parenthesis) [2]: 5.1 ± 0.35 (-106 ± 4) %
- IC50 [2]: 5.1 µM
- CYP2C9 Efficacy (in parenthesis) [3]: 0.63 ± 0.18 (-107 ± 5) %
- IC50 [3]: 0.63 µM
- CYP3A4 Efficacy (in parenthesis) [4]: 0.12 ± 0.02 (-91 ± 3) %
- IC50 [4]: 0.12 µM
- Luciferase IC50 (half-maximal inhibitory concentration) [6]: Inactive

Compound: NS(=O)(=O)C(F)(F)C(F)(F)C(F)(F)C(F)(F)C(F)(F)C(F)(F)C(F)(F)C(F)(F)F [PFOSA]
- CYP2D6 IC50 (half-maximal inhibitory concentration) [2]: Inactive
- IC50 ([8]; CYP2C19 IC50 (half-maximal inhibitory concentration)): 64.3 µM
- IC50 [7, 10]: 0.71 µM
- CYP3A4 IC50 (half-maximal inhibitory concentration) [4]: Inactive
- CYP1A2 IC50 (half-maximal inhibitory concentration) [5]: Inactive
- Luciferase IC50 (half-maximal inhibitory concentration) [6]: Inactive

Compound: Cl[C@H]1[C@H](Cl)[C@@H](Cl)[C@H](Cl)[C@@H](Cl)[C@@H]1Cl [beta-Hexachlorocyclohexane]
- IC50 [9]: 1.14 µM
- CYP2D6 IC50 [2]: Inactive
- IC50 ([8]; CYP2C19 IC50): 1.96 µM
- IC50 ([7]; CYP2C9 IC50): 4.17 µM
- Luciferase IC50 [6]: Inactive
